Experiments:
[1] = molecular target: T1, E. coli arabinose binding protein variant C64A/K301C (Escherichia coli, UniProt P02924, C87A/K324C); experiment: Arabinose affinity by tryptophan fluorescence
T1 construct: initiator methionine (N); Gly-Ser-Gly-(His)n or Gly-Ser-(His)n (n = 5, 6 or 10) (C); made in house; host or cells: E. coli BL21-DE3
Text: (§1) Molecular Cloning. […] All clones and mutations were confirmed by nucleotide sequencing.
(§2) Cysteine point mutations were introduced by the PCR overlap method (Ho et al., Gene 77:51-59, 1989). Mutant proteins typically expressed as well as the wild type protein. […] In the case of Fe(III) BP, all mutations were constructed in the E57D background. […] This permitted straightforward determination of Fe(III) affinity by direct titration with Fe(III) citrate at nanomolar concentrations of Fe(III) BP.
(§3) The effect on dissociation constants is determined not only by the attachment site, but also by the nature of the attached fluorophore, as illustrated for arabinose BP. Dissociation constants for arabinose of the five cysteine-substitution mutants (all with the C64A mutation), measured by tryptophan fluorescence, are 5.0 μM (F23C), 3.2 μM (L253C), 3.4 μM (D257C), 7.6 μM (L298C), and 1.6 μM (K301C).

[2] = molecular target: T2, E. coli arabinose binding protein variant C64A/D257C (Escherichia coli, UniProt P02924, C87A/D280C); experiment: Arabinose affinity by tryptophan fluorescence
T2 construct: initiator methionine (N); Gly-Ser-Gly-(His)n or Gly-Ser-(His)n (n = 5, 6 or 10) (C); made in house; host or cells: E. coli BL21-DE3
Text: as §1, §2, §3

[3] = molecular target: T3, E. coli arabinose binding protein variant C64A/F23C (Escherichia coli, UniProt P02924, C87A/F46C); experiment: Arabinose affinity by tryptophan fluorescence
T3 construct: initiator methionine (N); Gly-Ser-Gly-(His)n or Gly-Ser-(His)n (n = 5, 6 or 10) (C); made in house; host or cells: E. coli BL21-DE3
Text: as §1, §2, §3

[4] = molecular target: T4, E. coli arabinose binding protein variant C64A/L253C (Escherichia coli, UniProt P02924, C87A/L276C); experiment: Arabinose affinity by tryptophan fluorescence
T4 construct: initiator methionine (N); Gly-Ser-Gly-(His)n or Gly-Ser-(His)n (n = 5, 6 or 10) (C); made in house; host or cells: E. coli BL21-DE3
Text: as §1, §2, §3

[5] = molecular target: T5, E. coli arabinose binding protein variant C64A/L298C (Escherichia coli, UniProt P02924, C87A/L321C); experiment: Arabinose affinity by tryptophan fluorescence
T5 construct: initiator methionine (N); Gly-Ser-Gly-(His)n or Gly-Ser-(His)n (n = 5, 6 or 10) (C); made in house; host or cells: E. coli BL21-DE3
Text: as §1, §2, §3

[6] = molecular target: T6, E. coli arabinose binding protein variant C64A/F23C, fluorophore conjugate (Escherichia coli, UniProt P02924, C87A/F46C); experiment: Fluorimetric titration of fluorophore conjugates; settings: allosteric site
T6 construct: initiator methionine (N); Gly-Ser-Gly-(His)n or Gly-Ser-(His)n (n = 5, 6 or 10) (C); made in house; host or cells: E. coli BL21-DE3
Text: (§4) Molecular Cloning. […] Amplified products were cloned into one of the protein expression vectors pAED4 (Doering, “Functional and structural studies of a small f-actin binding domain” in Ph.D. thesis, Massachusetts Institute of Technology, 1992); pKK223-3 (Brosius & Holy, Proc. Natl. Acad. Sci. USA 81:6929-6933, 1984); or pET vectors (Studier et al., Meth. Enzymol. 185:60-89, 1990) (Novagen). N-terminal oligonucleotide primers were designed to clone only the processed periplasmic form, deleting the signal sequence. The C-terminal primer was designed to append the sequence Gly-Ser-Gly-(His)n or Gly-Ser-(His)n, where n=5, 6, or 10. Two tandem stop codons (TAATGA) follow the last His codon. […] Single amino acid substitutions were generated by overlapping PCR mutagenesis (Ho et al., Gene 77:51-59, 1989). All clones and mutations were confirmed by nucleotide sequencing. In the case of arabinose BP, the single cysteine in the wild type sequence was replaced by alanine to eliminate the possibility of reporter group conjugation to this thiol (Miller et al., J. Biol. Chem. 254:7521-7528, 1979). Additionally the sequence of Fe(III) BP was mutated by substitution of Glu57 with Asp to raise the Kd to a concentration range conveniently measured using Fe(III) citrate.
(§5) Fluorophore conjugation to cysteine-substituted bPBPs. Thiol-reactive fluorophores obtained from Molecular Probes (Eugene, Oreg.) were 5-iodoacetamidofluorescein (fluorescein); N-(1-pyrene) iodoacetamide (pyrene); N,N′-dimethyl-N-(iodoacetyl)-N′-(7-nitrobenz-2-oxa-1,3-diazol-4-yl)ethylenediamide (NBD); N-((2-(iodoacetoxy)ethyl)-N-methyl)amino-7-nitrobenz-2-oxa-1,3-diazole (NBDE); and 6-acryloyl-2-dimethylaminonaphthalene (acrylodan). The styryl and naphthyl dyes JPW4039, JPW4042, and JPW4045 (FIG. 3) were synthesized at the University of Connecticut. All fluorophore conjugation steps were typically carried out at room temperature. To protein at a concentration of 100 μM was added tris-(2-carboxyethyl)phosphine HCl to a five-fold molar excess to reduce intermolecular disulfide bonds. A thiol-reactive fluorophore (20 to 25 mM in acetonitrile or dimethyl sulfoxide) was added in small aliquots to a five-fold molar excess over protein. Conjugation proceeded in the dark at room temperature for 4 hours, or overnight at 4° C. Separation of protein from unreacted fluorophore was achieved by exhaustive dialysis or by size-exclusion chromatography. The efficiency of reporter group attachment was assessed by determination of unreacted thiol with Ellman's reagent (Ellman, Arch. Biochem. Biophys. 74:443-450, 1958) or by measuring the ratio of fluorophore to protein from absorbance spectra of the purified conjugate.
(§6) Fluorimetry. All measurements were conducted with an SLM Aminco-Bowman series 2 fluorimeter, with sample stirring at 25° C. Fluorescence emission spectra were acquired with excitation and emission slit widths of 4 and 8 nm, respectively. Photomultiplier tube potential was maintained between 400 and 800 volts. Protein concentrations were in the range of 50 to 1000 nM. Fluorophore-specific excitation was at the following approximate wavelengths: tryptophan, 290 nm; acrylodan, 390 nm; fluorescein, 485 nm; pyrene, 340 nm; NBD and NBDE, 490 nm; JPW4039, 485 nm; JPW4042, 470 nm; JPW4045, 470 nm.
(§7) Corrections were made for dilution of the protein and for background signal from buffer. Binding curves were fit to binding isotherms using equation 3 or 4, as appropriate.
(§8) Analyte affinity measurements. […] The emission wavelength monitored was that of maximum difference in intensity between the ligand-free and bound states. For each conjugate, fluorescence intensiometric observations were fit to a hyperbolic binding isotherm for a two-state model (Marvin et al., Proc. Natl. Acad. Sci. USA 94:4366-4371, 1997): […]

[7] = molecular target: T7, E. coli arabinose binding protein variant C64A/K301C, fluorophore conjugate (Escherichia coli, UniProt P02924, C87A/K324C); experiment: Fluorimetric titration of fluorophore conjugates
T7 construct: initiator methionine (N); Gly-Ser-Gly-(His)n or Gly-Ser-(His)n (n = 5, 6 or 10) (C); made in house; host or cells: E. coli BL21-DE3
Text: as §4, §5, §6, §7, §8

[8] = molecular target: T8, E. coli arabinose binding protein variant C64A/L298C, fluorophore conjugate (Escherichia coli, UniProt P02924, C87A/L321C); experiment: Fluorimetric titration of fluorophore conjugates; settings: allosteric site
T8 construct: initiator methionine (N); Gly-Ser-Gly-(His)n or Gly-Ser-(His)n (n = 5, 6 or 10) (C); made in house; host or cells: E. coli BL21-DE3
Text: as §4, §5, §6, §7, §8

[9] = molecular target: T9, E. coli arabinose binding protein variant C64A/L253C, fluorophore conjugate (Escherichia coli, UniProt P02924, C87A/L276C); experiment: Fluorimetric titration of fluorophore conjugates
T9 construct: initiator methionine (N); Gly-Ser-Gly-(His)n or Gly-Ser-(His)n (n = 5, 6 or 10) (C); made in house; host or cells: E. coli BL21-DE3
Text: as §4, §5, §6, §7, §8

[10] = molecular target: T10, E. coli arabinose binding protein variant C64A/D257C, fluorophore conjugate (Escherichia coli, UniProt P02924, C87A/D280C); experiment: Fluorimetric titration of fluorophore conjugates; settings: allosteric site
T10 construct: initiator methionine (N); Gly-Ser-Gly-(His)n or Gly-Ser-(His)n (n = 5, 6 or 10) (C); made in house; host or cells: E. coli BL21-DE3
Text: as §4, §5, §6, §7, §8

[11] = molecular target: T11, E. coli arabinose binding protein C64A mutant (Escherichia coli, UniProt P02924, C87A); experiment: Arabinose affinity of unconjugated arabinose BP C64A
T11 construct: initiator methionine (N); Gly-Ser-Gly-(His)n or Gly-Ser-(His)n (n = 5, 6 or 10) (C); made in house; host or cells: E. coli BL21-DE3
Text: as §1, §2, §3

[12] = Acrylodan conjugate, allosteric site
[13] = JPW4039 conjugate, allosteric site

T7 sequence (P02924 24-329 C87A/K324C): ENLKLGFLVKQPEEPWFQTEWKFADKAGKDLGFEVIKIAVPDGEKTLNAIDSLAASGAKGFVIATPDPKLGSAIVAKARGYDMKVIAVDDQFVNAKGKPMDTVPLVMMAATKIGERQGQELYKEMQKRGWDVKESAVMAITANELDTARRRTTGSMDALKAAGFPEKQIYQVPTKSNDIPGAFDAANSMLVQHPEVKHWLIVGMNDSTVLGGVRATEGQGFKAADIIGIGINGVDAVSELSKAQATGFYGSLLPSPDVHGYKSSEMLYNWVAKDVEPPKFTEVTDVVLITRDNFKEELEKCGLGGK
T9 sequence (P02924 24-329 C87A/L276C): as the sequence (P02924 24-329 C87A/K324C) above, with L253C, C301K counted along it
T10 sequence (P02924 24-329 C87A/D280C): as the sequence (P02924 24-329 C87A/K324C) above, with D257C, C301K counted along it
T8 sequence (P02924 24-329 C87A/L321C): as the sequence (P02924 24-329 C87A/K324C) above, with L298C, C301K counted along it
T6 sequence (P02924 24-329 F46C/C87A): as the sequence (P02924 24-329 C87A/K324C) above, with F23C, C301K counted along it
T1 sequence (P02924 24-329 C87A/K324C): as the sequence (P02924 24-329 C87A/K324C) above
T4 sequence (P02924 24-329 C87A/L276C): as the sequence (P02924 24-329 C87A/K324C) above, with L253C, C301K counted along it
T2 sequence (P02924 24-329 C87A/D280C): as the sequence (P02924 24-329 C87A/K324C) above, with D257C, C301K counted along it
T5 sequence (P02924 24-329 C87A/L321C): as the sequence (P02924 24-329 C87A/K324C) above, with L298C, C301K counted along it
T3 sequence (P02924 24-329 F46C/C87A): as the sequence (P02924 24-329 C87A/K324C) above, with F23C, C301K counted along it
T11 sequence (P02924 24-329 C87A): as the sequence (P02924 24-329 C87A/K324C) above, with C301K counted along it

OC1OC[C@H](O)[C@H](O)[C@H]1O (some centres unmarked) [arabinose]
Kd [1]: 1.6 µM | Kd [2]: 3.4 µM | Kd [3]: 5 µM | Kd [4]: 3.2 µM | Kd [5]: 7.6 µM | Kd ([6]; Acrylodan conjugate): 3.9 µM | Kd ([6]; Fluorescein conjugate): 3.2 µM | Kd ([6]; JPW4039 conjugate): 38 µM | Kd ([6]; NBD conjugate): 5 µM | Kd [7, 12]: 0.46 µM | Kd ([7]; Fluorescein conjugate, allosteric site): 24 µM | Kd [7, 13]: 77 µM | Kd ([7]; K301C-NBD conjugate): ~31 µM | Kd ([7]; NBD conjugate, allosteric site): 31 µM | Kd ([8]; Acrylodan conjugate): 44 µM | Kd ([8]; JPW4039 conjugate): 70 µM | Kd ([8]; NBD conjugate): 56 µM | Kd [9, 12]: 0.69 µM | Kd ([9]; Fluoresecin conjugate, allosteric site): 48 µM | Kd [9, 13]: 165 µM | Kd ([9]; L253C-NBD conjugate): 775 µM | Kd ([9]; L253C-acrylodan conjugate): 0.7 µM | Kd ([9]; L253C-fluorescein conjugate): ~48 µM | Kd ([9]; NBD conjugate, allosteric site): 775 µM | Kd ([10]; Acrylodan conjugate): 56 µM | Kd ([10]; Fluorescein conjugate): 4 µM | Kd ([10]; JPW4039 conjugate): 90 µM | Kd ([10]; NBD conjugate): 32 µM | Kd [11]: ~2.2 µM
